Results taken from article PMC9851200, “Multiparameter phenotypic screening for endogenous TFEB and TFE3 translocation identifies novel chemical series modulating lysosome function” (Autophagy, 2022).

Columns and labels:
Assay type in all cases: binding
[1] = biological target: T1, kinases (KINOMEscan panel) (Homo sapiens, UniProt Q8TD19); conditions: NEK9; NEW KINOMEscan
T1 sequence (Q8TD19 1-979): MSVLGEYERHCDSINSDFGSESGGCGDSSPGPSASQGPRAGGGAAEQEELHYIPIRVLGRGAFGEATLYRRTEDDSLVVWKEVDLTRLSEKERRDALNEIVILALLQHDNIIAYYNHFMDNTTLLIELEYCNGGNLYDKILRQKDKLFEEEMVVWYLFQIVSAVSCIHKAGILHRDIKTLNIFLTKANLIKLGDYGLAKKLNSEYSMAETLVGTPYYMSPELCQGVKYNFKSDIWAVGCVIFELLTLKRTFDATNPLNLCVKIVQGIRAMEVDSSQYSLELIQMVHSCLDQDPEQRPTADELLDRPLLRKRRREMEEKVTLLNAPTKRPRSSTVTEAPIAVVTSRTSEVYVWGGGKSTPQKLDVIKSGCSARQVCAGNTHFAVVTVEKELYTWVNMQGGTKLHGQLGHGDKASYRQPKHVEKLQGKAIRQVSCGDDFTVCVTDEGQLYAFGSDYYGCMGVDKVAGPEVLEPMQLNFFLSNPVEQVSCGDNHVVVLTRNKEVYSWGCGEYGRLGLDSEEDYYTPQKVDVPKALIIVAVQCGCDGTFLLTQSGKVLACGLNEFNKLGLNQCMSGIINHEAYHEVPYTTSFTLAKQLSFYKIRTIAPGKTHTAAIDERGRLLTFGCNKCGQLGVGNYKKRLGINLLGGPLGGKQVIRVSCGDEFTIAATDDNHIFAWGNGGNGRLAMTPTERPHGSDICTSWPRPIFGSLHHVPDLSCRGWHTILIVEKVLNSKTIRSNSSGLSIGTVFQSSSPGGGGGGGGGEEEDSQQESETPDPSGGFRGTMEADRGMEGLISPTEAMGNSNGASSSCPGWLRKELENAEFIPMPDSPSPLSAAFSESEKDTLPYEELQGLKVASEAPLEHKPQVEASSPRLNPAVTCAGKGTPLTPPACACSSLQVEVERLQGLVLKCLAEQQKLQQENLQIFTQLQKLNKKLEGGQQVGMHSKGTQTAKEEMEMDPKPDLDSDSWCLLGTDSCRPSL

[2] = biological target: T2, kinases (KINOMEscan panel) (Homo sapiens, UniProt Q8WXR4); conditions: MYO3B; NEW KINOMEscan
T2 sequence (Q8WXR4 1-1341): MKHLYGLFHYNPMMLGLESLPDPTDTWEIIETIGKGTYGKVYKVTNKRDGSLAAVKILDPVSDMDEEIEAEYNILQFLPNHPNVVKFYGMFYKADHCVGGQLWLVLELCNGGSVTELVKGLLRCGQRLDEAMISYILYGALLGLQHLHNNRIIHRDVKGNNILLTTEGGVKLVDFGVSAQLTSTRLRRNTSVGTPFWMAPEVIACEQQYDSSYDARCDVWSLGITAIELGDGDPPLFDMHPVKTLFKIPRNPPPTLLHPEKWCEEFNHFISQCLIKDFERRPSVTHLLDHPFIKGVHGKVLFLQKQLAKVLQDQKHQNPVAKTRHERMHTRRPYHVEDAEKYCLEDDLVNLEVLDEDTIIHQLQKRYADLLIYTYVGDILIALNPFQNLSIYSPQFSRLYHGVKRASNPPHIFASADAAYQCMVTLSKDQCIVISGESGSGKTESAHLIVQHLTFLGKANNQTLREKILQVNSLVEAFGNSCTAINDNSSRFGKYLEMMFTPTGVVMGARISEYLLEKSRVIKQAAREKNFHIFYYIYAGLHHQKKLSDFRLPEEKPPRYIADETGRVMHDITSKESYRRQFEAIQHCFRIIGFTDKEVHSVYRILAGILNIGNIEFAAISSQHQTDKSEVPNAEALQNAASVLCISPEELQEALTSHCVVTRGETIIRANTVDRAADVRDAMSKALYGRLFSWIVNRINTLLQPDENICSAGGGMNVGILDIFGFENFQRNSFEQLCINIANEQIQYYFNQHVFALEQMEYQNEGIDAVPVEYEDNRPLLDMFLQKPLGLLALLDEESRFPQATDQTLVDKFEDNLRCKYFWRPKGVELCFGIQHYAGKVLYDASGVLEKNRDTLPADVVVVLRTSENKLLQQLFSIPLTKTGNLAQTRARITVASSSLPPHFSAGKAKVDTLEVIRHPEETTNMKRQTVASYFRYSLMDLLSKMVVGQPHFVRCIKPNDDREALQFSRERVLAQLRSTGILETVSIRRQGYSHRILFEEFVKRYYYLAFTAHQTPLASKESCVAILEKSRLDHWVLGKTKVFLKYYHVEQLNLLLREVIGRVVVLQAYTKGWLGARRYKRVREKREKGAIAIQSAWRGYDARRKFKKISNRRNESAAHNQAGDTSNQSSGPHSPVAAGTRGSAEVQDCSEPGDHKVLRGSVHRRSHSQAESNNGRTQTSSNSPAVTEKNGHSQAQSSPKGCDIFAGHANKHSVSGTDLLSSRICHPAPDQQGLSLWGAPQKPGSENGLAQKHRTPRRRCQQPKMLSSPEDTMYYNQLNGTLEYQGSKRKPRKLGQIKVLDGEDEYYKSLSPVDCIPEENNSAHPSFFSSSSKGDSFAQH

[3] = biological target: T3, kinases (KINOMEscan panel) (Homo sapiens, UniProt Q9UPZ9); conditions: CILK1; NEW KINOMEscan
T3 sequence (Q9UPZ9 1-632): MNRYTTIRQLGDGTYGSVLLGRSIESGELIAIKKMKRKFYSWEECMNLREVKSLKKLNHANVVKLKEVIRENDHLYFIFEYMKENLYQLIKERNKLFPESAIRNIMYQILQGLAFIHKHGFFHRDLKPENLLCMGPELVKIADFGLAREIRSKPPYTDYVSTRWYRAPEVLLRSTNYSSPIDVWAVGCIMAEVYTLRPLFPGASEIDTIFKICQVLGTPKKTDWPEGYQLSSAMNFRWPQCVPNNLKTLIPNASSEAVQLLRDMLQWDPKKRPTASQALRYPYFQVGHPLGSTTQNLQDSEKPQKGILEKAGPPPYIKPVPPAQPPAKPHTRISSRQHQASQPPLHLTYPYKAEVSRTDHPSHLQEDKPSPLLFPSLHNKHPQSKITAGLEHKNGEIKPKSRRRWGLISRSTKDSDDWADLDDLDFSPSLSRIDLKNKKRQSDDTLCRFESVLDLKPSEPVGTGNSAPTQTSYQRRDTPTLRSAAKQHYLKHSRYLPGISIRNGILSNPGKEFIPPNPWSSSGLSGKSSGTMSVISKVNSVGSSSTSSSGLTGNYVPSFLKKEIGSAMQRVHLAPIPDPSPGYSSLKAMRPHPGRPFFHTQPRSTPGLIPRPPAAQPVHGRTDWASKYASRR

SMILES	KINOMEscan NEK9 [1]	KINOMEscan MYO3B [2]	KINOMEscan CILK1 [3]
Cc1cccc(-c2nc(Nc3ccc4nn(C)cc4c3)c3ccccc3n2)n1 [NK167]	0	0	0
Cc1cccc(-c2nc(N(C)c3ccc4ncsc4c3)c3ccccc3n2)n1 [NK-161]	0	1	0
